Structures can show the parent of a compound that is named as a salt.
Experiments:
Assay type in all cases: physicochemical
[1] = solubility in lipid solvents (Example 1); details: ambient conditions, listed as ABT-263 bis-HCl salt;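 note: solubility in mg/g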
Method: Solubility of ABT-263 parent (free base, crystalline Form I) and ABT-263 bis-HCl salt was tested in a variety of lipid solvents and solvent mixtures in ambient conditions. “PE-91” is Phosal 53 MCT™+ethanol, 9:1 by volume. “LOT-343” is Labrafil M 1944 CS™+oleic acid+Tween 80™, 30:40:30 by weight.
In some cases, indicated in Table 4 by an asterisk (*), solubility was initially high but precipitation occurred upon standing.

[2] = drug solubility in ternary excipient systems (Example 2); set-up: key: ✓: vehicle miscible, or drug fully dissolved in vehicle; details: 10% salt, 20% free base
Description: (§1) Solvents evaluated included Labrafil M 1944 CS™, Imwitor 742™ oleic acid, Capmul PG-8™, Capmul PG-12™, Lauroglycol 90™ and Phosal 53 MCT™. Surfactants evaluated included Tween™ 80, Cremophor RH40™, Gelucire 44/14™ and Labrasol™.

[3] = as above; set-up: key: ✓: vehicle miscible, or drug fully dissolved in vehicle; X: vehicle immiscible or miscible but turbid, or residual solids present (due to undissolved drug or precipitation); details: 10% salt, 20% free base
Description: as §1

Q: With `CC1(C)CCC(c2ccc(Cl)cc2)=C(CN2CCN(c3ccc(C(=O)NS(=O)(=O)c4ccc(N[C@H](CCN5CCOCC5)CSc5ccccc5)c(S(=O)(=O)C(F)(F)F)c4)cc3)CC2)C1` [ABT-263 bis-HCl] as the compound, how does the Solubility ([1]; in Capmul MCM) read?
A: The Solubility was over 321 mg/g.

Q: What about the Solubility ([1]; in Capmul PG-8) of the same compound?
A: The Solubility was under 43 mg/g.

Q: And the Solubility ([1]; in Capmul PG-12)?
A: The Solubility was under 39 mg/g.

Q: What about the Solubility ([1]; in Captex 300) of the same compound?
A: The Solubility was under 52 mg/g.

Q: And the Solubility ([1]; in Imwitor 742)?
A: The Solubility was over 245 mg/g.

Q: What about the Solubility ([1]; in Labrafil M 1944 CS) of the same compound?
A: The Solubility was under 45 mg/g.

Q: And the Solubility ([1]; in Labrafil M 2125 CS)?
A: The Solubility was under 44 mg/g.

Q: And the Solubility ([1]; in Labrasol)?
A: The Solubility was over 292 mg/g.

Q: And the Solubility ([1]; in Lipoid S75 MCT)?
A: Its Solubility is 48.9 mg/g.

Q: What about the Solubility ([1]; in Miglyol 810) of the same compound?
A: Its Solubility is under 84 mg/g.

Q: And the Solubility ([1]; in PE-91 (Phosal 53 MCT+ethanol 9:1 by volume))?
A: Its Solubility is 89 mg/g.

Q: What about the Solubility ([1]; in PEG-400) of the same compound?
A: Its Solubility is over 278 mg/g.

Q: And the Solubility ([1]; in Tween 20)?
A: The Solubility was over 176 mg/g.

Q: What about the Solubility ([1]; in Tween 80) of the same compound?
A: Its Solubility is over 125 mg/g.

Q: What about the Solubility ([1]; in castor oil) of the same compound?
A: Its Solubility is over 78.8 mg/g.

Q: What about the Solubility ([1]; in corn oil) of the same compound?
A: The Solubility was under 104 mg/g.

Q: What about the Solubility ([1]; in oleic acid) of the same compound?
A: Its Solubility is under 498 mg/g.

Q: And the Solubility ([1]; in poloxamer 124)?
A: Its Solubility is under 41 mg/g.

Q: And the Solubility ([1]; in propylene glycol)?
A: The Solubility was over 337 mg/g.

Q: What about the Solubility ([1]; in sesame oil) of the same compound?
A: The Solubility was under 80 mg/g.

Q: What about the ABT-263 solubility ([2]; C8LL (Capmul PG-8/Labrafil M 1944 CS/Labrasol) 40:40:20 by weight) of the same compound?
A: The ABT-263 solubility was “✓”.

Q: And the ABT-263 solubility ([2]; C12LT (Capmul PG-12/Labrafil M 1944 CS/Tween 80) 30:40:30 by weight)?
A: Its ABT-263 solubility is “✓”.

Q: What about the ABT-263 solubility ([2]; C12LT (Capmul PG-12/Labrafil M 1944 CS/Tween 80) 35:40:25 by weight) of the same compound?
A: The ABT-263 solubility was “✓”.

Q: What about the ABT-263 solubility ([2]; C12LT (Capmul PG-12/Labrafil M 1944 CS/Tween 80) 40:30:30 by weight) of the same compound?
A: The ABT-263 solubility was “✓”.

Q: And the ABT-263 solubility ([2]; C12LT (Capmul PG-12/Labrafil M 1944 CS/Tween 80) 45:30:25 by weight)?
A: The ABT-263 solubility was “✓”.

Q: And the ABT-263 solubility ([2]; ILC (Imwitor 742/Labrafil M 1944 CS/Cremophor RH40) 50:30:20 by weight, listed as ABT-263 bis-HCl salt)?
A: The ABT-263 solubility was “✓”.

Q: And the ABT-263 solubility ([2]; ILC (Imwitor 742/Labrafil M 1944 CS/Cremophor RH40) 50:40:10 by weight, listed as ABT-263 bis-HCl salt)?
A: The ABT-263 solubility was “✓”.

Q: What about the ABT-263 solubility ([2]; ILC (Imwitor 742/Labrafil M 1944 CS/Cremophor RH40) 60:30:10 by weight, listed as ABT-263 bis-HCl salt) of the same compound?
A: The ABT-263 solubility was “✓”.

Q: What about the ABT-263 solubility ([2]; ILL (Imwitor 742/Labrafil M 1944 CS/Labrasol) 40:40:20 by weight, listed as ABT-263 bis-HCl salt) of the same compound?
A: Its ABT-263 solubility is “✓”.

Q: And the ABT-263 solubility ([2]; ILL (Imwitor 742/Labrafil M 1944 CS/Labrasol) 50:30:20 by weight, listed as ABT-263 bis-HCl salt)?
A: Its ABT-263 solubility is “✓”.

Q: What about the ABT-263 solubility ([2]; ILL (Imwitor 742/Labrafil M 1944 CS/Labrasol) 50:40:10 by weight, listed as ABT-263 bis-HCl salt) of the same compound?
A: The ABT-263 solubility was “✓”.

Q: What about the ABT-263 solubility ([2]; ILL (Imwitor 742/Labrafil M 1944 CS/Labrasol) 60:30:10 by weight, listed as ABT-263 bis-HCl salt) of the same compound?
A: Its ABT-263 solubility is “✓”.

Q: And the ABT-263 solubility ([2]; LIT (Labrafil M 1944 CS/Imwitor 742/Tween 80) 30:40:30 by weight, listed as ABT-263 bis-HCl salt)?
A: Its ABT-263 solubility is “✓”.

Q: What about the ABT-263 solubility ([2]; LIT (Labrafil M 1944 CS/Imwitor 742/Tween 80) 40:30:30 by weight, listed as ABT-263 bis-HCl salt) of the same compound?
A: The ABT-263 solubility was “✓”.

Q: What about the ABT-263 solubility ([2]; LLL (Lauroglycol 90/Labrafil M 1944 CS/Labrasol) 40:40:20 by weight) of the same compound?
A: Its ABT-263 solubility is “✓”.

Q: What about the ABT-263 solubility ([2]; LLL (Lauroglycol 90/Labrafil M 1944 CS/Labrasol) 50:30:20 by weight) of the same compound?
A: Its ABT-263 solubility is “✓”.

Q: What about the ABT-263 solubility ([2]; LLL (Lauroglycol 90/Labrafil M 1944 CS/Labrasol) 50:40:10 by weight, listed as ABT-263 bis-HCl salt) of the same compound?
A: The ABT-263 solubility was “✓”.

Q: And the ABT-263 solubility ([2]; LLL (Lauroglycol 90/Labrafil M 1944 CS/Labrasol) 60:30:10 by weight, listed as ABT-263 bis-HCl salt)?
A: Its ABT-263 solubility is “✓”.

Q: And the ABT-263 solubility ([2]; LOT (Labrafil M 1944 CS/oleic acid/Tween 80) 30:40:30 by weight)?
A: Its ABT-263 solubility is “✓”.

Q: And the ABT-263 solubility ([2]; LOT (Labrafil M 1944 CS/oleic acid/Tween 80) 30:45:25 by weight)?
A: Its ABT-263 solubility is “✓”.

Q: And the ABT-263 solubility ([2]; LOT (Labrafil M 1944 CS/oleic acid/Tween 80) 40:30:30 by weight)?
A: Its ABT-263 solubility is “✓”.

Q: What about the ABT-263 solubility ([2]; LOT (Labrafil M 1944 CS/oleic acid/Tween 80) 40:35:25 by weight) of the same compound?
A: The ABT-263 solubility was “✓”.

Q: And the ABT-263 solubility ([2]; OLL (oleic acid/Labrafil M 1944 CS/Labrasol) 40:40:20 by weight)?
A: The ABT-263 solubility was “✓”.

Q: And the ABT-263 solubility ([2]; OLL (oleic acid/Labrafil M 1944 CS/Labrasol) 50:30:20 by weight)?
A: Its ABT-263 solubility is “✓”.

Q: What about the ABT-263 solubility ([2]; OLL (oleic acid/Labrafil M 1944 CS/Labrasol) 50:40:10 by weight) of the same compound?
A: The ABT-263 solubility was “✓”.

Q: What about the ABT-263 solubility ([2]; OLL (oleic acid/Labrafil M 1944 CS/Labrasol) 60:30:10 by weight) of the same compound?
A: Its ABT-263 solubility is “✓”.

Q: What about the ABT-263 solubility ([3]; C8LL (Capmul PG-8/Labrafil M 1944 CS/Labrasol) 50:30:20 by weight) of the same compound?
A: Its ABT-263 solubility is “X”.

Q: What about the ABT-263 solubility ([3]; C8LL (Capmul PG-8/Labrafil M 1944 CS/Labrasol) 50:40:10 by weight) of the same compound?
A: The ABT-263 solubility was “X”.

Q: What about the ABT-263 solubility ([3]; C8LL (Capmul PG-8/Labrafil M 1944 CS/Labrasol) 60:30:10 by weight) of the same compound?
A: The ABT-263 solubility was “X”.

Q: What about the ABT-263 solubility ([3]; C8LT (Capmul PG-8/Labrafil M 1944 CS/Tween 80) 30:40:30 by weight) of the same compound?
A: The ABT-263 solubility was “X”.

Q: What about the ABT-263 solubility ([3]; C8LT (Capmul PG-8/Labrafil M 1944 CS/Tween 80) 35:40:25 by weight) of the same compound?
A: Its ABT-263 solubility is “X”.

Q: What about the ABT-263 solubility ([3]; C8LT (Capmul PG-8/Labrafil M 1944 CS/Tween 80) 40:30:30 by weight) of the same compound?
A: Its ABT-263 solubility is “X”.

Q: What about the ABT-263 solubility ([3]; C8LT (Capmul PG-8/Labrafil M 1944 CS/Tween 80) 45:30:25 by weight) of the same compound?
A: The ABT-263 solubility was “X”.

Reference: patent US20100297194A1, “FORMULATION FOR ORAL ADMINISTRATION OF APOPTOSIS PROMOTER” (priority 2009, published 2010)
